The target in one data set is T1, HsPMM2 (Homo sapiens, UniProt O15305).
T1 construct: gene PMM2; pET28a, His-tag cut with thrombin; E. coli BL21 Gold (DE3)
T1 sequence (O15305 2-246): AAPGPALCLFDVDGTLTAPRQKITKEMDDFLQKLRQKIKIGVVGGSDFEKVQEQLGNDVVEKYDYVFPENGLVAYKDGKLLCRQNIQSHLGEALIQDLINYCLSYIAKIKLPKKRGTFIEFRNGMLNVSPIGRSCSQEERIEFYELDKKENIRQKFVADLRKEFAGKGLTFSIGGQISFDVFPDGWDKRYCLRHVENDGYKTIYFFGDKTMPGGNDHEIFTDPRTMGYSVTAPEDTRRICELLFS
Kind of data set: coupled PGM assay (G6PDH, NADPH at […] nm). The data set is classed as biochemical. As to conditions: 1 mM glucose 1-phosphate, 10 μM G-1,6-P, 1 mM MgCl2, pH 7.5, room temperature, 65 nM enzyme.

The target of another data set is T2, HsPMM1 (Homo sapiens, UniProt Q92871).
T2 construct: gene PMM1; pET28a, His-tag cut with thrombin; E. coli BL21 Gold (DE3)
T2 sequence (Q92871 2-262): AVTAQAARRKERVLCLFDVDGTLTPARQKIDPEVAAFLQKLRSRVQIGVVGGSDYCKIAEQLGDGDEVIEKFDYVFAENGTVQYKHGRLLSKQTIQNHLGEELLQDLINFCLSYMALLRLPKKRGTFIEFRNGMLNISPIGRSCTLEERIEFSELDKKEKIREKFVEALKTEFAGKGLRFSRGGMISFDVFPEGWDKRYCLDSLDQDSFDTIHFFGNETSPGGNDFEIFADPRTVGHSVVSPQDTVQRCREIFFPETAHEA
The experiment in a line: coupled PGM assay (G6PDH, NADPH at […] nm). It is filed as biochemical. As to conditions: 1 mM glucose 1-phosphate, 10 μM G-1,6-P, 1 mM MgCl2, pH 7.5, room temperature, 133 nM enzyme.

A further data set has as its target T3, HAD5 (PfHAD5) (Plasmodium falciparum, UniProt Q8IJM5).
T3 construct: gene PF3D7_1017400; pET28a, N-terminal His-tag cut with thrombin; E. coli BL21 Gold (DE3); size-exclusion purified
T3 sequence (Q8IJM5 1-244): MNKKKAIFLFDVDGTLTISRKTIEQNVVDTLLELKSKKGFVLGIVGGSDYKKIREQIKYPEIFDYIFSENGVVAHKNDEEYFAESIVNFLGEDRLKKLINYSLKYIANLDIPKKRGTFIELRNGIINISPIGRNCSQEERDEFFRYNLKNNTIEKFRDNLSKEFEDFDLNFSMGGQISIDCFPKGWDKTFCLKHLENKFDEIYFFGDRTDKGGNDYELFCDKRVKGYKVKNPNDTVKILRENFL
Kind of data set: linked PMM assay, activation. As to conditions: 12.5 μM G-1,6-P, 1 mM mannose 6-phosphate, pH 7.5, room temperature; activator. It is filed as biochemical.

Substrate in the data set “purified protein”: O=P(O)(O)O[C@H]1O[C@H](CO)[C@@H](O)[C@H](O)[C@H]1O
Kind of data set: purified protein. As to conditions: G1P to G6P, 10 μM G-1,6-P, 0.75 mM NADP+, 25 mM Tris-HCl, 25 mM NaCl, 1 mM MgCl2, pH 7.5, room temperature.

The results in this text go back to article PMC8808168, “Enzymatic and structural characterization of HAD5, an essential phosphomannomutase of malaria-causing parasites” (The Journal of Biological Chemistry, 2021).

With `O=P(O)(O)C[C@H]1O[C@H](CNO)[C@@H](O)[C@H](O)[C@H]1O` [D9, compound D9], the IC50 was found to be 413 ± 41 µM against HsPMM2 and 895 ± 66 µM against HsPMM1.
On to `O=P(O)(O)OC[C@H]1O[C@H](OP(=O)(O)O)[C@H](O)[C@@H](O)[C@@H]1O` [glucose-1,6-bisphosphate], for which, at HAD5 (PfHAD5), the “linked PMM assay, activation” value is “upon addition of the known cofactor glucose-1,6-bisphosphate”.

B1: HAD5 (PfHAD5) (Plasmodium falciparum 3D7) (protein)
chain: T3 sequence (Q8IJM5 1-244)
With B1, in “purified protein”, the Km amounted to 5.2 ± 1.4 µM, the kcat was 7.8e-06 ± 1.2e-06 s⁻¹ and the kcat/Km was found to be 1.5 M⁻¹ s⁻¹.
